# Test results: patent US20230278998A1, “Compound containing structure of a five-membered heteroaromatic ring, pharmaceutical compositions thereof and applications thereof” (280 Bio, Inc., priority 2022, published 2023)
# Molecular target: PARG (389-976) (Homo sapiens (Human), UniProt Q86W56)
# Assay: PARG enzyme inhibition assay (TR-FRET)
# Assay type: biochemical
# Conditions: Table 3, class symbol
# Procedure: PARG Enzyme Inhibition Assay
# PARG in vitro assays were conducted in standard 384-well plates in a total volume of 15 μL.
# Sequence of PARG (389-976) (Q86W56 389-976): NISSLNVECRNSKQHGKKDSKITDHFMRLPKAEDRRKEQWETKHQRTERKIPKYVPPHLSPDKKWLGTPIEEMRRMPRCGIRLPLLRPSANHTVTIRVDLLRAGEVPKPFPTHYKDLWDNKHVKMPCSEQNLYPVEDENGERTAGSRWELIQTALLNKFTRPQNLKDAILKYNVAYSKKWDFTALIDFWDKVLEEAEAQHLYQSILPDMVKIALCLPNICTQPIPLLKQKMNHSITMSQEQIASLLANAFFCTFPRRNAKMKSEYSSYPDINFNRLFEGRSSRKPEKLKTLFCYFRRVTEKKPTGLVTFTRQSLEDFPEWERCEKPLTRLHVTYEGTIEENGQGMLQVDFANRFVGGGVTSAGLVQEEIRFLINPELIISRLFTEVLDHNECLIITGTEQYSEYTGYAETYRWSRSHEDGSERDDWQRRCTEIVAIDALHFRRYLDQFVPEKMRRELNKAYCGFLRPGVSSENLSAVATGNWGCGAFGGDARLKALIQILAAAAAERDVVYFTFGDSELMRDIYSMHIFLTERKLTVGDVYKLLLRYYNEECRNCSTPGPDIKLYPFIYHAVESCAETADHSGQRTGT
row,Compound,IC50 [nM]
1,C[C@H](O)C(=O)N1C2CCC1CN(c1cc(S(=O)(=O)NC3(C#N)CC3)cc3c(-c4nnc(C(F)F)s4)nn(C)c13)C2 [Compound 72],< 100
2,C[C@H](N)C(=O)N1C2CCC1CN(c1cc(S(=O)(=O)NC3(C#N)CC3)cc3c(-c4nnc(C(F)F)s4)nn(C)c13)C2 [Compound 73],< 100
3,CN1CCC(C(=O)N2C3CCC2CN(c2cc(S(=O)(=O)NC4(C#N)CC4)cc4c(-c5nnc(C(F)F)s5)nn(C)c24)C3)C1 (centres unmarked) [Compound 74],< 100
4,Cn1nc(-c2nnc(C(F)F)s2)c2cc(S(=O)(=O)NC3(C#N)CC3)cc(N3CC4CCC(C3)N4C(=O)C3CCCC3)c21 [Compound 75],< 100
5,Cn1nc(-c2nnc(C(F)F)s2)c2cc(S(=O)(=O)NC3(C#N)CC3)cc(N3CCC(C(C)(C)O)CC3)c21 [Compound 76],< 100
6,CC(C)C(=O)N1CC2(C1)CN(c1cc(S(=O)(=O)NC3(C#N)CC3)cc3c(-c4nnc(C(F)F)s4)nn(C)c13)C2 [Compound 77],< 100
7,C[C@H](N)C(=O)N1C2C=C(c3cc(S(=O)(=O)NC4(C#N)CC4)cc4c(-c5nnc(C(F)F)s5)nn(C)c34)CC1CC2 (some centres unmarked) [Compound 79],< 100
8,C[C@H](O)C(=O)N1C2C=C(c3cc(S(=O)(=O)NC4(C#N)CC4)cc4c(-c5nnc(C(F)F)s5)nn(C)c34)CC1CC2 (some centres unmarked) [Compound 80],< 100
9,C[C@H](N)C(=O)N1CC=C(c2cc(S(=O)(=O)NC3(C#N)CC3)cc3c(-c4nnc(C(F)F)s4)nn(C)c23)CC1 [Compound 81],< 100
10,CC(C)C(=O)N1CCN(c2cc(S(=O)(=O)NC3(C)CC3)cc3c(-c4nnc(C(F)F)s4)nn(C)c23)C[C@@H]1C [Compound 82],< 100
11,CC(C)C(=O)N1C2C=C(c3cc(S(=O)(=O)NC4(C#N)CC4)cc4c(-c5nnc(C(F)F)s5)nn(C)c34)CC1CCC2 (centres unmarked) [Compound 83],< 100
12,CC(C)C(=O)N1C2CCCC1CN(c1cc(S(=O)(=O)NC3(C#N)CC3)cc3c(-c4nnc(C(F)F)s4)nn(C)c13)C2 [Compound 84],< 100
13,CC(C)C(=O)N1C2C=C(c3cc(S(=O)(=O)NC4(C#N)CC4)cc4c(-c5nnc(C(F)F)s5)nn(C)c34)CC1COC2 (centres unmarked) [Compound 85],< 100
14,CC(C)C(=O)N1C2COCC1CN(c1cc(S(=O)(=O)NC3(C#N)CC3)cc3c(-c4nnc(C(F)F)s4)nn(C)c13)C2 [Compound 86],< 100
15,Cn1nc(-c2nnc(C(F)F)s2)c2cc(S(=O)(=O)NC3(C#N)CC3)cc(N3CCC(C(=O)N4CCCC4)CC3)c21 [Compound 89],< 100
16,CN(C)C(=O)C1CCN(c2cc(S(=O)(=O)NC3(C#N)CC3)cc3c(-c4nnc(C(F)F)s4)nn(C)c23)CC1 [Compound 90],< 100
17,CCn1nc(-c2nnc(C(F)F)s2)c2cc(S(=O)(=O)NC3(C)CC3)cc(N3CCN(C(=O)C(C)C)[C@@H](C)C3)c21 [Compound 92],< 100
18,CCn1nc(-c2nnc(C(F)F)s2)c2cc(S(=O)(=O)NC3(C#N)CC3)cc(N3CC4CCC(C3)N4C(=O)C(C)C)c21 [Compound 93],< 100
19,CCn1nc(-c2nnc(C(F)F)s2)c2cc(S(=O)(=O)NC3(C#N)CC3)cc(N3C4CCC3CN(C(=O)C(C)C)C4)c21 [Compound 94],< 100
20,CC(C)C(=O)N1C2CCC1CN(c1cc(S(=O)(=O)NC3(C#N)CC3)cc3c(-c4nnc(C(F)F)s4)nn(CC(F)(F)F)c13)C2 [Compound 95],< 100
21,COc1ccc(CN(C2(C#N)CC2)S(=O)(=O)c2cc(N3CC4CCC(C3)N4C(=O)C(C)C)c3c(c2)c(-c2nnc(C(F)F)s2)nn3CCO)cc1 [Compound 96],100 to 1000
22,C[C@H](N)C(=O)N1CCC(c2cc(S(=O)(=O)NC3(C#N)CC3)cc3c(-c4nnc(C(F)F)s4)nn(C)c23)CC1 [Compound 98],< 100

row,Compound,IC50 [nM]
1,COCCn1nc2c(N3CC4CCC(C3)N4C(=O)C(C)C)cc(S(=O)(=O)NC3(C#N)CC3)cc2c1-c1nnc(C(F)F)s1 [Compound 99],< 100
2,CC(C)C(=O)N1CC2CCC(C1)N2c1cc(S(=O)(=O)NC2(C#N)CC2)cc2c(-c3nnc(C(F)F)s3)nn(C)c12 [Compound 101],< 100
3,CC(C)C(=O)N1C2CCC1CN(c1cc(S(=O)(=O)NC3(C#N)CC3)cc3c(-c4nnc(C(F)F)s4)nn(C)c13)C2 [Compound 102],< 100
4,CCn1nc(-c2nnc(C(F)F)s2)c2cc(S(=O)(=O)NC3(C#N)CC3)cc(N3CCN(C(=O)C(C)C)[C@H](C)C3)c21 [Compound 103],< 100
5,CC(C)C(=O)N1[C@H](C)CN(c2cc(S(=O)(=O)NC3(C#N)CC3)cc3c(-c4nnc(C(F)F)s4)nn(CC(F)(F)F)c23)C[C@@H]1C [Compound 104],< 100
6,CC(C)(O)C1CCN(c2cc(S(=O)(=O)NC3(C#N)CC3)cc3c(-c4nnc(C(F)F)s4)nn(CC(F)(F)F)c23)CC1 [Compound 105],< 100
7,Cn1nc(-c2nnc(C(F)F)s2)c2cc(S(=O)(=O)NC3(C#N)CC3)cc(N3CC4(CCOCC4)C3)c21 [Compound 106],< 100
8,CC(C)C(=O)N1CC=C(c2cc(S(=O)(=O)NC3(C#N)CC3)cc3c(-c4nnc(C(F)F)s4)nn(CC(F)(F)F)c23)CC1 [Compound 107],< 100
9,CC(C)C(=O)N1CCN(c2cc(S(=O)(=O)NC3(C#N)CC3)cc3c(-c4nnc(C(F)F)s4)nn(CC(F)(F)F)c23)C[C@@H]1C [Compound 108],< 100
10,CC(C)C(=O)N1CCN(c2cc(S(=O)(=O)NC3(C#N)CC3)cc3c(-c4nnc(C(F)F)s4)nn(CC(F)(F)F)c23)C[C@H]1C [Compound 109],< 100
11,C[C@H](O)C(=O)N1CCN(c2cc(S(=O)(=O)NC3(C#N)CC3)cc3c(-c4nnc(C(F)F)s4)nn(CC(F)(F)F)c23)CC1 [Compound 110],< 100
12,C[C@H](N)C(=O)N1CCN(c2cc(S(=O)(=O)NC3(C#N)CC3)cc3c(-c4nnc(C(F)F)s4)nn(CC(F)(F)F)c23)CC1 [Compound 111],< 100
13,Cn1nc(-c2nnc(C(F)F)s2)c2cc(S(=O)(=O)NC3(C#N)CC3)cc(N3CC4CCC(C3)C4C(=O)N3CCCC3)c21 (centres unmarked) [Compound 113],< 100
14,C[C@H](O)C(=O)N1CCC(c2cc(S(=O)(=O)NC3(C#N)CC3)cc3c(-c4nnc(C(F)F)s4)nn(C)c23)CC1 [Compound 114],< 100
15,CC(C)C(=O)N1CCN(c2cc(S(=O)(=O)NC3(C#N)CC3)cc3c(-c4nnc(C(F)F)s4)nn(CC#N)c23)C[C@H]1C [Compound 115],< 100
16,CC(C)C(=O)N1CCC(c2cc(S(=O)(=O)NC3(C#N)CC3)cc3c(-c4nnc(C(F)F)s4)nn(C)c23)CC1 [Compound 116],< 100
17,CC(C)C(=O)N1CCN2c3cc(S(=O)(=O)NC4(C#N)CC4)cc4c(-c5nnc(C(F)F)s5)nn(c34)CC2C1 (centres unmarked) [Compound 117],< 100
18,N#CC1(NS(=O)(=O)c2cc(C3=CC4CCC(C3)N4C(=O)C3CCCC3)c3c(c2)c(-c2nnc(C(F)F)s2)nn3CC(F)(F)F)CC1 (centres unmarked) [Compound 119],< 100
19,CC(C)C(=O)N1C2C=C(c3cc(S(=O)(=O)NC4(C#N)CC4)cc4c(-c5nnc(C(F)F)s5)nn(C)c34)CC1CC2 (centres unmarked) [Compound 120],< 100
20,Cn1nc(-c2nnc(C(F)F)s2)c2cc(S(=O)(=O)NC3(C#N)CC3)cc(C3CC4CCC(C3)N4)c21 (centres unmarked) [Compound 121],< 100
21,CC(C)C(=O)N1C2CCC1CN(c1cc(S(=O)(=O)NC3(C#N)CC3)cc3c(-c4nnc(C(F)F)s4)nn(CC#N)c13)C2 [Compound 122],< 100
22,CC(C)C(=O)N1C2CCC1CN(c1cc(S(=O)(=O)NC3(C#N)CC3)cc3c(-c4nnc(C(F)F)s4)cn(C)c13)C2 [Compound 123],< 100
